Where two headings read alike, the source gives them in different places.
Legend:
Format in all cases: biochemical
ENPP1 [1] = molecular target: T1, ENPP1 (Homo sapiens, UniProt P22413); test: ENPP1 enzyme assay with cGAMP substrate (AMP-Glo); set-up: purchased R&D Systems; settings: for inhibition at 1 µM: read-out: cGAMP: % Inhibition at 1 µM
T1 sequence (P22413 1-925): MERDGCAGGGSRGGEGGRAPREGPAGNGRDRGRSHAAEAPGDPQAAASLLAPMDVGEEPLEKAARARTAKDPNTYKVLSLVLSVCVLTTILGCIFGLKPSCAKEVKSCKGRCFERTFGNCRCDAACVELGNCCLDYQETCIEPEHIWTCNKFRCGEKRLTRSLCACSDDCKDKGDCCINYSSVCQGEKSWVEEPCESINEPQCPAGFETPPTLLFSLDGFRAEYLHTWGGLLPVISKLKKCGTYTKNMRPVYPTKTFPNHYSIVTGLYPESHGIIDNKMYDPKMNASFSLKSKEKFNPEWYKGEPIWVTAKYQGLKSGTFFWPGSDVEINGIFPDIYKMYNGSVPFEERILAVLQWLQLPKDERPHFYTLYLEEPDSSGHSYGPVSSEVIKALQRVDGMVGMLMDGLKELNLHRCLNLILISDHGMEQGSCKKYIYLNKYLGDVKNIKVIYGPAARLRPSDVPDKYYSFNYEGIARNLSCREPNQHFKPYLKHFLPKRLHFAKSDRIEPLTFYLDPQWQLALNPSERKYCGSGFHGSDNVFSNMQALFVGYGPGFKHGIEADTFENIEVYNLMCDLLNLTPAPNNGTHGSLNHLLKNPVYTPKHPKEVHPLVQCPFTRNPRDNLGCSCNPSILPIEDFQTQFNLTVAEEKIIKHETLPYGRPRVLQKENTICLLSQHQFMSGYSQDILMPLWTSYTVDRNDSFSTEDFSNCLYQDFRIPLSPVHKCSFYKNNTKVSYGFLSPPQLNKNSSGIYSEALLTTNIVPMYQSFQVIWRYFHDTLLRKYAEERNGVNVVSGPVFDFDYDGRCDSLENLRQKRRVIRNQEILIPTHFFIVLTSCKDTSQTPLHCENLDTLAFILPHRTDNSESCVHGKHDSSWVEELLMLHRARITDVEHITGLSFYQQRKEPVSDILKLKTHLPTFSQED
Source text: Example B1: ENPP1 Enzyme Assay With cGAMP Substrate
Ectonucleotide pyrophosphatase/phosphodiesterase 1 (ENPP-1) is a transmembrane glycoprotein that hydrolyzes nucleotides and nucleotide derivatives with the formation of nucleoside-5’-monophosphates. […] The 5’-AMP formed from the reaction is detected using the AMP-Glo® Kit (Promega). The assay kit contains two reagents. The first reagent terminates the enzymatic reaction, removes ATP (using adenylyl cyclase), and converts 5’-AMP produced into ADP (using polyphosphate: AMP phosphotransferase). The second reagent converts ADP to ATP (using adenylate kinase) and generates light from ATP using the luciferin/luciferase reaction.
Different concentrations of ENPP1 inhibitors are pre-incubated with 5 ng/well of human ENPP-1 enzyme (R&D Systems) for 15 minutes at 37° C. The reaction is initiated by adding 20 µM 2’3’-cGAMP and incubating for 30 minutes at 37° C. The final assay reaction mixture contains a buffer of 50 mM Tris pH 8.0, 250 mM NaCl, 0.5 mM CaCl2, 1 µM ZnCl2 and 1% DMSO. At the end of the incubation, the reaction is stopped by adding 12 µl of AMP-Glo reagent-1 and mixing the reaction uniformly for 5 minutes, followed by incubation at room temperature for one hour. Then 25 µl of AMP Glo reagent-2 is added to the reaction, mixed uniformly with a pipette, and incubated at room temperature for one hour to convert the ADP formed from reagent-1 to ATP and light. The generated light is measured in a Perkin Elmer Victor® instrument.
The IC50 values for percent inhibition versus compound concentration are determined by fitting the inhibition curves using a four-parameter variable slope model in GraphPad Prism® software. Ki values are derived from the IC50 values using the Cheng-Prusoff equation: […]

ENPP1 [2] = molecular target: T1, ENPP1; test: Indirect quantitation of 2',3'-cGAMP hydrolysis (AMP-Glo Assay kit); settings: cGAMP substrate; Ki from IC50 by Cheng-Prusoff; read-out: ENPP1 Inhibition -cGAMP: Ki
ENPP1 [3] = molecular target: T1, ENPP1; test: ENPP1 enzyme assay with AMP-pNP substrate (hydrolysis of ATP analog); settings: AMP-pNP substrate (ATP analog); Ki from IC50 by Cheng-Prusoff; read-out: ENPP1 Inhibition _AMP-pNP: Ki
Procedure, shortened: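 Human recombinant ENPP1 (60 ng/well) with 300 µM AMP-pNP in 50 mM Tris-HCl pH 8.5, 250 mM NaCl, 0.5 mM CaCl2, 1 µM ZnCl2, 0.1% DMSO, 20 min at 37 °C.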

ENPP1 [4] = molecular target: T1, ENPP1; test: Substrate selectivity ratio, inhibition of cGAMP hydrolysis versus ATP hydrolysis; settings: ratio Ki AMP-pNP / Ki cGAMP
Procedure: The selectivity ratios for inhibition of cGAMP hydrolysis versus ATP hydrolysis were then calculated as follows: […]

| Compound | inhibition at 1 µM (ENPP1 [1]; 1 µM compound, cGAMP substrate) [%] | Ki (ENPP1 [2]) [nM] | Ki (ENPP1 [1]; cGAMP substrate, Ki from IC50 by Cheng-Prusoff, read-out: cGAMP: Ki) [nM] | Ki (ENPP1 [3]) [nM] | Substrate Selectivity: Ki_AMP-pNP/Ki_cGAMP (ENPP1 [4]) | inhibition at 1 µM (ENPP1 [1]) [%] |
| --- | --- | --- | --- | --- | --- | --- |
| COc1cccc(C(=O)N2CCC(CCNS(N)(=O)=O)CC2)c1 [Example 48, N-(2-(1-(3-methoxybenzoyl)piperidin-4-yl)ethyl)sulfamide] | 25 to 50 | > 1000 | – | – | – | – |
| COc1cc(N)c(C(=O)N2CCC(CCNS(N)(=O)=O)CC2)cc1OC [Example 46, N-(2-(1-(2-amino-4,5-dimethoxybenzoyl)piperidin-4-yl)ethyl)sulfamide] | < 25 | > 1000 | – | – | – | – |
| COc1cc2ncnc(N3CCC(NS(N)(=O)=O)CC3)c2cc1OC [Example 51, N-(1-(6,7-dimethoxyquinazolin-4-yl)piperidin-4-yl)sulfamide] | > 75 | 100 to 1000 | 100 to 1000 | – | – | – |
| NS(=O)(=O)NCCC1CCN(c2ccnc(-c3cccnc3)n2)CC1 [Example 14, N-(2-(1-(2-(pyridin-3-yl)pyrimidin-4-yl)piperidin-4-yl)ethyl)sulfamide] | < 25 | > 1000 | – | – | – | – |
| NS(=O)(=O)NCCC1CCN(c2ccnc(Nc3cccnc3)n2)CC1 [Example 12, N-(2-(1-(2-(pyridin-3-ylamino)pyrimidin-4-yl)piperidin-4-yl)ethyl)sulfamide] | – | > 1000 | – | – | – | < 25 |
| NS(=O)(=O)NCCC1CCN(c2ccnc(Nc3ccncc3)n2)CC1 [Example 13, N-(2-(1-(2-(pyridin-4-ylamino)pyrimidin-4-yl)piperidin-4-yl)ethyl)sulfamide] | – | > 1000 | – | – | – | 25 to 50 |
| NS(=O)(=O)NCCC1CCN(c2cc(-c3ccc4ncoc4c3)ncn2)CC1 [Example 9, N-(2-(1-(6-(benzo[d]oxazol-6-yl)pyrimidin-4-yl)piperidin-4-yl)ethyl)sulfamide] | – | > 1000 | – | – | – | < 25 |
| COc1ccc(C(=O)N2CCC(CCNS(N)(=O)=O)CC2)cc1 [Example 49, N-(2-(1-(4-methoxybenzoyl)piperidin-4-yl)ethyl)sulfamide] | 25 to 50 | > 1000 | – | – | – | – |
| COc1cc2ccnc(N3CCC(CCNS(N)(=O)=O)CC3)c2cc1OC [Example 21, N-{2-[1-(6,7-dimethoxyisoquinolin-1-yl)piperidin-4-yl]ethyl}aminosulfonamide] | – | > 1000 | – | – | – | 25 to 50 |
| COc1ccc2c(Oc3ccc(NS(N)(=O)=O)c(Cl)c3)ccnc2c1 [Example 75, N-(2-chloro-4-((7-methoxyquinolin-4-yl)oxy)phenyl)sulfamide] | – | < 100 | – | 100 to 1000 | 41.3 | – |
| COc1cc2nccc(Oc3ccc(S(N)(=O)=O)cc3)c2cc1F [Example 74, 4-((6-fluoro-7-methoxyquinolin-4-yl)oxy)benzenesulfonamide] | – | < 100 | – | < 100 | 22.5 | – |
| COc1cc2ncnc(Nc3ccc(NS(N)(=O)=O)cc3)c2cc1OC [Example 114, N-(4-((6,7-dimethoxyquinazolin-4-yl)amino)phenyl)sulfamide] | – | < 100 | – | > 1000 | >42.7 | – |
| COc1ccc2c(N3CCC4(CC3)CCN(S(N)(=O)=O)C4)ncnc2c1 [Example 65, 8-(7-methoxyquinazolin-4-yl)-2,8-diazaspiro [4.5] decane-2-sulfonamide] | – | < 100 | – | < 100 | 38.7 | – |

Now from value to compound, other results behind:

| inhibition at 1 µM (ENPP1 [1]; 1 µM compound, cGAMP substrate) [%] | Ki (ENPP1 [2]) [nM] | Ki (ENPP1 [1]; cGAMP substrate, Ki from IC50 by Cheng-Prusoff, read-out: cGAMP: Ki) [nM] | Ki (ENPP1 [3]) [nM] | Substrate Selectivity: Ki_AMP-pNP/Ki_cGAMP (ENPP1 [4]) | Compound | inhibition at 1 µM (ENPP1 [1]) [%] |
| --- | --- | --- | --- | --- | --- | --- |
| – | < 100 | – | < 100 | 21.5 | COc1cc2ncc(-c3ccc4c(c3)CN(S(N)(=O)=O)CC4)c(Cl)c2cc1OC [Example 260, 7-(4-chloro-6,7-dimethoxyquinolin-3-yl)-3,4-dihydroisoquinoline-2(1H)-sulfonamide] | – |
| – | < 100 | – | 100 to 1000 | >13 | COc1ccc2c(Oc3ccc(NS(N)(=O)=O)cc3)cc(C)nc2c1 [Example 397, N-(4-((7-methoxy-2-methylquinolin-4-yl)oxy)phenyl)sulfamide] | – |
| – | < 100 | – | 100 to 1000 | 35.9 | COc1cc2nccc(N3CCC(CCNS(N)(=O)=O)CC3)c2cc1F [Example 220, N-(2-(1-(6-fluoro-7-methoxyquinolin-4-yl)piperidin-4-yl)ethyl)sulfamide] | – |
| – | < 100 | – | < 100 | 17.9 | COc1ccc2c(NCc3ccc(S(N)(=O)=O)cc3)ccnc2c1 [Example 293, 4-(((7-methoxyquinolin-4-yl)amino)methyl)benzenesulfonamide] | – |
| – | 100 to 1000 | – | 100 to 1000 | > 2.40 | COc1ccc2c(Oc3cnc(NS(N)(=O)=O)nc3)ccnc2c1 [Example 224, N-(5-((7-methoxyquinolin-4-yl)oxy)pyrimidin-2-yl)sulfamide] | – |
| – | < 100 | – | < 100 | 30 | COc1ccc2c(NCc3ccc(NS(N)(=O)=O)cc3)ccnc2n1 [Example 417, N-(4-(((7-methoxy-1,8-naphthyridin-4-yl)amino)methyl)phenyl)sulfamide] | – |
| – | < 100 | – | 100 to 1000 | 35 | COc1cc2nccc(Oc3ccc(NS(N)(=O)=O)cc3)c2cn1 [Example 330, N-(4-((7-methoxy-1,6-naphthyridin-4-yl)oxy)phenyl)sulfamide] | – |
| – | 100 to 1000 | – | > 1000 | >12.9 | COc1cc2nccc(Oc3ccc(NS(=O)(=O)C4CCC4)cc3)c2cc1OC [Example 261, N-(4-((6,7-dimethoxyquinolin-4-yl)oxy)phenyl)cyclobutanesulfonamide] | – |
| – | < 100 | – | 100 to 1000 | 10.5 | COc1cc2nccc(N3CC4CN(S(N)(=O)=O)CC4C3)c2cc1OC (stereo not shown) [Example 202, 5-(6,7-dimethoxyquinolin-4-yl)hexahydropyrrolo[3,4-c]pyrrole-2(1H)-sulfonamide] | – |
| – | 100 to 1000 | – | > 1000 | >117 | COc1cc2nccc(N3CCC(CCNS(=O)(=O)N4CCOCC4)CC3)c2cc1OC [Example 147, N-(2-(1-(6,7-dimethoxyquinolin-4-yl)piperidin-4-yl)ethyl)morpholine-4-sulfonamide] | – |
| – | < 100 | – | > 1000 | >38.8 | COc1cc2nccc(-n3ccc4cc(NS(N)(=O)=O)ccc43)c2cc1OC [Example 313, N-(1-(6,7-dimethoxyquinolin-4-yl)-1H-indol-5-yl)sulfamide] | – |
| – | < 100 | – | 100 to 1000 | 29.5 | COc1ccc2c(-c3ccc(CNS(N)(=O)=O)cc3)ncnc2c1 [Example 226, N-(4-(7-methoxyquinazolin-4-yl)benzyl)sulfamide] | – |

— US20230183239A1, “ECTONUCLEOTIDE PYROPHOSPHATASE-PHOSPHODIESTERASE 1 (ENPP-1) INHIBITORS AND USES THEREOF” (AbbVie Inc., priority 2017, published 2023)
